How the values were obtained:
Type in all cases: in vivo
[1] = tested on: ivyleaf morningglory (Ipomoea hederacea, IPOHE); test: Post-emerge test, greenhouse herbicide activity screening; conditions: post-emerge, 14 days after application, rating scale 0-100
In short: (§1)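 Visual ratings on a 0-100 scale (0 no damage, 100 all plants dead) were taken at 14 days after treatment. Rates of 15-1000 g ai/ha in acetone, 187 l/ha, were sprayed onto soil one day after planting (pre-emerge) or onto 2-3 leaf plants with 0.25% v/v surfactant (post-emerge).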

[2] = tested on: common ragweed (Ambrosia artemisizfolia L., AMBEL); test: as above; conditions: post-emerge, 14 days after application, rating scale 0-100
In short: as §1

[3] = tested on: barnyardgrass (Echinochloa crus-galli, ECHCG); test: as above; conditions: post-emerge, 14 days after application, rating scale 0-100
In short: as §1

[4] = tested on: sicklepod (Cassia obtusifolia, CASOB); test: as above; conditions: post-emerge, 14 days after application, rating scale 0-100
In short: as §1

[5] = tested on: lambsquarters (Chenopodium album, CHEAL); test: as above; conditions: post-emerge, 14 days after application, rating scale 0-100
In short: as §1

[6] = tested on: large crabgrass (Digitaria sanguinalis, DIGSA); test: as above; conditions: post-emerge, 14 days after application, rating scale 0-100
In short: as §1

[7] = tested on: velvetleaf (Abutilon theophrasti, ABUTH); test: as above; conditions: post-emerge, 14 days after application, rating scale 0-100
In short: as §1

[8] = tested on: redroot pigweed (Amaranthus retroflexus, AMARE); test: as above; conditions: post-emerge, 14 days after application, rating scale 0-100
In short: as §1

[9] = tested on: green foxtail (Setaria viridis, SETVI); test: as above; conditions: post-emerge, 14 days after application, rating scale 0-100
In short: as §1

[10] = tested on: johnsongrass (Sorghum halepense, SORHA); test: as above; conditions: post-emerge, 14 days after application, rating scale 0-100
In short: as §1

[11] = tested on: upland rice (Oryza sp., var. Tebonnet, RICE); test: Post-emerge test, crop safety; conditions: post-emerge, 14 days after application, rating scale 0-100
In short: (§2)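 Compounds in acetone were track-sprayed at 15-1000 g ai/ha (187 l/ha) on sandy loam pots: pre-emerge one day after seeding, post-emerge at 2-3 leaf stage with 0.25% v/v non-ionic surfactant. Phytotoxicity was rated 14 days later on a 0 (no damage) to 100 (complete death) scale.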

[12] = tested on: field corn (Zea mays L., var. Dekalb 535, CORN); test: Post-emerge test, crop safety; conditions: post-emerge, 14 days after application, rating scale 0-100
In short: as §2

[13] = tested on: upland rice (Oryza sp., var. Tebonnet, RICE); test: Pre-emerge test, crop safety; conditions: rated 14 days after application, 0 = no damage, 100 = complete death
In short: (§3)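 Sandy loam pots; pre-emerge: sown 1 d pre-spray, surface-watered after, then bottom-watered. Post-emerge: sown 8–21 d before, 2–3 leaf stage, + 0.25% v/v NIS, bottom-watered. Acetone, 187 l/ha track spray, 15–1000 g ai/ha. 0–100 injury score, day 14.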

[14] = tested on: field corn (Zea mays L., var. Dekalb 535, CORN); test: Pre-emerge test, crop safety; conditions: rated 14 days after application, 0 = no damage, 100 = complete death
In short: as §3

[15] = tested on: ivyleaf morningglory (Ipomoea hederacea, IPOHE); test: Pre-emerge test, greenhouse herbicide activity screening; conditions: rated 14 days after application, 0 = no damage, 100 = complete death
In short: as §2

[16] = tested on: barnyardgrass (Echinochloa crus-galli, ECHCG); test: as above; conditions: rated 14 days after application, 0 = no damage, 100 = complete death
In short: as §2

[17] = tested on: sicklepod (Cassia obtusifolia, CASOB); test: as above; conditions: rated 14 days after application, 0 = no damage, 100 = complete death
In short: as §2

[18] = tested on: lambsquarters (Chenopodium album, CHEAL); test: as above; conditions: rated 14 days after application, 0 = no damage, 100 = complete death
In short: as §2

[19] = tested on: large crabgrass (Digitaria sanguinalis, DIGSA); test: as above; conditions: rated 14 days after application, 0 = no damage, 100 = complete death
In short: as §2

[20] = tested on: velvetleaf (Abutilon theophrasti, ABUTH); test: as above; conditions: rated 14 days after application, 0 = no damage, 100 = complete death
In short: as §2

[21] = tested on: green foxtail (Setaria viridis, SETVI); test: as above; conditions: rated 14 days after application, 0 = no damage, 100 = complete death
In short: as §2

[22] = tested on: johnsongrass (Sorghum halepense, SORHA); test: as above; conditions: rated 14 days after application, 0 = no damage, 100 = complete death
In short: as §2

[23] = tested on: redroot pigweed (Amaranthus retroflexus, AMARE); test: as above; conditions: rated 14 days after application, 0 = no damage, 100 = complete death
In short: as §3

## COc1c(Cl)cc(F)c(-n2c(=O)cc(C(F)(F)F)n(C)c2=O)c1NC(=O)c1ccc(C(F)(F)F)cc1 [2-33]
[1]; 63 g ai/ha
  phytotoxicity rating IPOHE: 100
[1]; 250 g ai/ha
  phytotoxicity rating IPOHE: 100
[2]; 63 g ai/ha
  phytotoxicity rating AMBEL: 70
[2]; 250 g ai/ha
  phytotoxicity rating AMBEL: 95
[3]; 63 g ai/ha
  phytotoxicity rating ECHCG: 10
[3]; 250 g ai/ha
  phytotoxicity rating ECHCG: 60
[4]; 63 g ai/ha
  phytotoxicity rating CASOB: 70
[4]; 250 g ai/ha
  phytotoxicity rating CASOB: 80
[5]; 63 g ai/ha
  phytotoxicity rating CHEAL: 80
[5]; 250 g ai/ha
  phytotoxicity rating CHEAL: 95
[6]; 63 g ai/ha
  phytotoxicity rating DIGSA: 0
[6]; 250 g ai/ha
  phytotoxicity rating DIGSA: 40
[7]; 63 g ai/ha
  phytotoxicity rating ABUTH: 100
[7]; 250 g ai/ha
  phytotoxicity rating ABUTH: 100
[8]; 63 g ai/ha
  phytotoxicity rating AMARE: 90
[8]; 250 g ai/ha
  phytotoxicity rating AMARE: 95
[9]; 63 g ai/ha
  phytotoxicity rating SETVI: 50
[9]; 250 g ai/ha
  phytotoxicity rating SETVI: 40
[10]; 63 g ai/ha
  phytotoxicity rating SORHA: 0
[10]; 250 g ai/ha
  phytotoxicity rating SORHA: 20
[11]; 63 g ai/ha
  phytotoxicity rating RICE: 20
[11]; 250 g ai/ha
  phytotoxicity rating RICE: 60
[12]; 63 g ai/ha
  phytotoxicity rating CORN: 10
[12]; 250 g ai/ha
  phytotoxicity rating CORN: 40
[13]; 63 g ai/ha
  Pre-emerge phytotoxicity rating (0-100), crop damage, RICE: 70
[13]; 250 g ai/ha
  Pre-emerge phytotoxicity rating (0-100), crop damage, RICE: 80
[14]; 63 g ai/ha
  Pre-emerge phytotoxicity rating (0-100), crop damage, CORN: 70
[14]; 250 g ai/ha
  Pre-emerge phytotoxicity rating (0-100), crop damage, CORN: 90
[15]; 63 g ai/ha
  Pre-emerge Herbicidal Activity, phytotoxicity rating (0-100), IPOHE: 100
[15]; 250 g ai/ha
  Pre-emerge Herbicidal Activity, phytotoxicity rating (0-100), IPOHE: 100
[16]; 63 g ai/ha
  Pre-emerge Herbicidal Activity, phytotoxicity rating (0-100), ECHCG: 30
[16]; 250 g ai/ha
  Pre-emerge Herbicidal Activity, phytotoxicity rating (0-100), ECHCG: 95
[17]; 63 g ai/ha
  Pre-emerge Herbicidal Activity, phytotoxicity rating (0-100), CASOB: 100
[17]; 250 g ai/ha
  Pre-emerge Herbicidal Activity, phytotoxicity rating (0-100), CASOB: 100
[18]; 63 g ai/ha
  Pre-emerge Herbicidal Activity, phytotoxicity rating (0-100), CHEAL: 100
[18]; 250 g ai/ha
  Pre-emerge Herbicidal Activity, phytotoxicity rating (0-100), CHEAL: 100
[19]; 63 g ai/ha
  Pre-emerge Herbicidal Activity, phytotoxicity rating (0-100), DIGSA: 100
[19]; 250 g ai/ha
  Pre-emerge Herbicidal Activity, phytotoxicity rating (0-100), DIGSA: 100
[20]; 63 g ai/ha
  Pre-emerge Herbicidal Activity, phytotoxicity rating (0-100), ABUTH: 100
[20]; 250 g ai/ha
  Pre-emerge Herbicidal Activity, phytotoxicity rating (0-100), ABUTH: 100
[21]; 63 g ai/ha
  Pre-emerge Herbicidal Activity, phytotoxicity rating (0-100), SETVI: 100
[21]; 250 g ai/ha
  Pre-emerge Herbicidal Activity, phytotoxicity rating (0-100), SETVI: 100
[22]; 63 g ai/ha
  Pre-emerge Herbicidal Activity, phytotoxicity rating (0-100), SORHA: 60
[22]; 250 g ai/ha
  Pre-emerge Herbicidal Activity, phytotoxicity rating (0-100), SORHA: 90
[23]; 63 g ai/ha
  Pre-emerge Herbicidal Activity, phytotoxicity rating (0-100), AMARE: 100
[23]; 250 g ai/ha
  Pre-emerge Herbicidal Activity, phytotoxicity rating (0-100), AMARE: 100
